From PubChem BioAssay AID1963874 (Molecular Pharmacology Branch, DTP, NCI, 2024)

Test system: 253994-281-T-J1-PDC KRAS-mutant spheroids with HUVEC/MSC, viability
Experiment: Anticancer human tumor 253994-281-T-J1-PDC patient-derived colorectal carcinoma cell line growth inhibition [KRAS2]
Conditions: for IC50: curve of first compound; for viability, T/C: stronger effect = lower value
Outline: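 KRAS-mutant tumor cells were grown as spheroids with HUVEC endothelial cells and human MSCs as stroma. Targeted agents were tested alone and with KRAS pathway inhibitors. Doses started at or near clinical Cmax, or 10 microM, descending half-log.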

[1] = second compound 0.1 µM, first compound 0.01 µM
[2] = second compound 0.1 µM, first compound 0.0316 µM
[3] = second compound 0.1 µM, first compound 0.1 µM
[4] = second compound 0.1 µM, first compound 0.316 µM
[5] = second compound 0.1 µM, first compound 1 µM
[6] = second compound 0.1 µM, first compound 3.16 µM
[7] = second compound 0.316 µM, first compound 0.01 µM
[8] = second compound 0.316 µM, first compound 0.0316 µM
[9] = second compound 0.316 µM, first compound 0.1 µM
[10] = second compound 0.316 µM, first compound 0.316 µM
[11] = second compound 0.316 µM, first compound 1 µM
[12] = second compound 0.316 µM, first compound 3.16 µM
[13] = second compound 1 µM, first compound 0.01 µM
[14] = second compound 1 µM, first compound 0.0316 µM
[15] = second compound 1 µM, first compound 0.1 µM
[16] = second compound 1 µM, first compound 0.316 µM
[17] = second compound 1 µM, first compound 1 µM
[18] = second compound 1 µM, first compound 3.16 µM
[19] = second compound 3.16 µM, first compound 0.01 µM
[20] = second compound 3.16 µM, first compound 0.0316 µM
[21] = second compound 3.16 µM, first compound 0.1 µM
[22] = second compound 3.16 µM, first compound 0.316 µM
[23] = second compound 3.16 µM, first compound 1 µM
[24] = second compound 3.16 µM, first compound 3.16 µM
[25] = second compound 10 µM, first compound 0.01 µM
[26] = second compound 10 µM, first compound 0.0316 µM
[27] = second compound 10 µM, first compound 0.1 µM
[28] = second compound 10 µM, first compound 0.316 µM
[29] = second compound 10 µM, first compound 1 µM
[30] = second compound 10 µM, first compound 3.16 µM
[31] = second compound 0.1 µM, first compound 10 µM
[32] = second compound 0.316 µM, first compound 10 µM
[33] = second compound 1 µM, first compound 10 µM
[34] = second compound 3.16 µM, first compound 10 µM
[35] = second compound 10 µM, first compound 10 µM
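Further: spheroids exposed to agents for seven days before readout.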
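Wherever viability, T/C is given: percent of DMSO vehicle control viability.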

| SMILES | IC50 (second compound 0.1 µM) | IC50 (second compound 0.316 µM) | IC50 (second compound 1 µM) | IC50 (second compound 3.16 µM) | IC50 (second compound 10 µM) | viability, T/C [2] | viability, T/C [3] | viability, T/C [4] | viability, T/C [5] | viability, T/C [6] | viability, T/C [8] | viability, T/C [9] | viability, T/C [10] | viability, T/C [11] | viability, T/C [14] | viability, T/C [15] | viability, T/C [20] | viability, T/C [21] | viability, T/C [26] | viability, T/C [27] | further results |
| --- | --- | --- | --- | --- | --- | --- | --- | --- | --- | --- | --- | --- | --- | --- | --- | --- | --- | --- | --- | --- | --- |
| CC(=O)OC12COC1CC(O)C1(C)C(=O)C(O)C3=C(C)C(OC(=O)C(O)C(NC(=O)OC(C)(C)C)c4ccccc4)CC(O)(C(OC(=O)c4ccccc4)C21)C3(C)C (stereo not given) + CNCc1ccccc1-c1csc(C(C)Nc2nc(C)nc3cc(OC)c(OC)cc23)c1 | 17.8 nM | 12.9 nM | 27.5 nM | < 10 nM | < 10 nM | 31.9% | 26.6% | 24.7% | 27.1% | 25.2% | 30.1% | 23.1% | 24% | 26% | 46.6% | 26.6% | 45.6% | 5.64% | 0.19% | 0.16% | viability, T/C [1]: 68.3%; viability, T/C [7]: 55.8%; viability, T/C [12]: 23.6%; viability, T/C [13]: 74.8%; viability, T/C [16]: 25.6%; viability, T/C [17]: 24.4%; viability, T/C [18]: 27%; viability, T/C [19]: 0.31%; viability, T/C [22]: 0.12%; viability, T/C [23]: 6.77%; viability, T/C [24]: 27.2%; viability, T/C [25]: 0.17%; viability, T/C [28]: 0.15%; viability, T/C [29]: 0.17%; viability, T/C [30]: 0.21% |
| CN(C)C/C=C/C(=O)Nc1cc2c(Nc3ccc(F)c(Cl)c3)ncnc2cc1O[C@H]1CCOC1 + CNCc1ccccc1-c1csc(C(C)Nc2nc(C)nc3cc(OC)c(OC)cc23)c1 | > 100 nM | > 100 nM | > 100 nM | 2.36 nM | < 0.316 nM | 83.4% | 54.7% |  |  |  | 67.2% | 51% |  |  | 60.5% | 62.1% | 68.7% | 34.4% | 0.33% | 0.24% | viability, T/C (second compound 0.1 µM, first compound 0.000316 µM): 99.3%; viability, T/C (second compound 0.1 µM, first compound 0.001 µM): 91.9%; viability, T/C (second compound 0.1 µM, first compound 0.00316 µM): 80.3%; viability, T/C [1]: 74.4%; viability, T/C (second compound 0.316 µM, first compound 0.000316 µM): 81.7%; viability, T/C (second compound 0.316 µM, first compound 0.001 µM): 78.1%; viability, T/C (second compound 0.316 µM, first compound 0.00316 µM): 81.3%; viability, T/C [7]: 69%; viability, T/C (second compound 1 µM, first compound 0.000316 µM): 83.2%; viability, T/C (second compound 1 µM, first compound 0.001 µM): 83%; viability, T/C (second compound 1 µM, first compound 0.00316 µM): 60.4%; viability, T/C [13]: 64.9%; viability, T/C (second compound 3.16 µM, first compound 0.000316 µM): 93.9%; viability, T/C (second compound 3.16 µM, first compound 0.001 µM): 97.6%; viability, T/C (second compound 3.16 µM, first compound 0.00316 µM): 33.2%; viability, T/C [19]: 0.82%; viability, T/C (second compound 10 µM, first compound 0.000316 µM): 0.18%; viability, T/C (second compound 10 µM, first compound 0.001 µM): 0.2%; viability, T/C (second compound 10 µM, first compound 0.00316 µM): 0.17%; viability, T/C [25]: 0.26% |
| COC(=O)c1ccc2c(C(=Nc3ccc(N(C)C(=O)CN4CCN(C)CC4)cc3)c3ccccc3)c(O)[nH]c2c1 + CNCc1ccccc1-c1csc(C(C)Nc2nc(C)nc3cc(OC)c(OC)cc23)c1 | 6670 nM | 4120 nM | 4520 nM | < 31.6 nM | < 31.6 nM | 90.3% | 97.4% | 73.2% | 89.3% | 77% | 99.1% | 74.1% | 80.8% | 83.8% | 82.6% | 75% | 20.7% | 23.6% | 0.14% | 0.16% | viability, T/C [31]: 35.2%; viability, T/C [12]: 61.7%; viability, T/C [32]: 10.7%; viability, T/C [16]: 77.3%; viability, T/C [17]: 70.8%; viability, T/C [18]: 72.3%; viability, T/C [33]: 0.33%; viability, T/C [22]: 3.7%; viability, T/C [23]: 1.12%; viability, T/C [24]: 0.36%; viability, T/C [34]: 0.17%; viability, T/C [28]: 0.15%; viability, T/C [29]: 0.22%; viability, T/C [30]: 0.12%; viability, T/C [35]: 0.17% |
| O=C(c1cc(Cc2n[nH]c(=O)c3ccccc23)ccc1F)N1CCN(C(=O)C2CC2)CC1 + CNCc1ccccc1-c1csc(C(C)Nc2nc(C)nc3cc(OC)c(OC)cc23)c1 | > 10000 nM | > 10000 nM | > 10000 nM | < 31.6 nM | < 31.6 nM | 101% | 85.3% | 99.8% | 94.3% | 95.2% | 103% | 98.5% | 90.5% | 92.7% | 96.4% | 119% | 19.2% | 45% | 0.17% | 0.16% | viability, T/C [31]: 96.2%; viability, T/C [12]: 99.5%; viability, T/C [32]: 97.5%; viability, T/C [16]: 93.8%; viability, T/C [17]: 82.9%; viability, T/C [18]: 75.7%; viability, T/C [33]: 78.2%; viability, T/C [22]: 12.3%; viability, T/C [23]: 35.3%; viability, T/C [24]: 16.5%; viability, T/C [34]: 11%; viability, T/C [28]: 0.17%; viability, T/C [29]: 0.19%; viability, T/C [30]: 0.17%; viability, T/C [35]: 0.24% |
